The values below come from PMC3855329, “A Fluorescence-Based Thermal Shift Assay Identifies Inhibitors of Mitogen Activated Protein Kinase Kinase 4” (PLoS ONE, 2013).

SMILES strings stand for the structures. Like-named read-outs stand apart in the source and are kept apart here.

Test [1] concerns the target T1, MAP3K1 activated murine MAP2K4 (MAP2K4-AC) (Mus musculus, UniProt P47809).
T1 construct: purchased Millipore 14-377
T1 sequence (P47809 1-397): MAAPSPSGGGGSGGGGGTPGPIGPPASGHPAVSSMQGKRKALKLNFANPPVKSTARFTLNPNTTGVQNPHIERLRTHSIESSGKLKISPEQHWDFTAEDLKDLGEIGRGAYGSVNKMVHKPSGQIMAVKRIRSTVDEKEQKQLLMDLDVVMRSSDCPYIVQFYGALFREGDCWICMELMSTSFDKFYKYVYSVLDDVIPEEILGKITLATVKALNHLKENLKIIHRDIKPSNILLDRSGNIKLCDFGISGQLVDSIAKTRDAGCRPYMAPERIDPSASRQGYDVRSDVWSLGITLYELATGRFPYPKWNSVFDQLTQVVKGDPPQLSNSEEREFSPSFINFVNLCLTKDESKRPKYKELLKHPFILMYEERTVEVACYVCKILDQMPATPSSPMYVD
Briefly: In vitro MAP2K4 kinase assay, p38α MAPK (K53A) substrate, Western blot densitometry. Type of test: biochemical. The protocol: In addition to activated MAP2K4, the in vitro kinase assay used either kinase dead JNK1-K55M (Abcam # ab95248) or kinase dead p38α MAPK-K53A (generously provided by Dr. Martin Watterson, Northwestern) as the substrate, ATP (Cell Signaling) and kinase assay buffer (25 mM Tris-HCl (pH 7.5), 5 mM beta-glycerophosphate, 2 mM dithiothreitol (DTT), 0.1 mM Na3VO4, 10 mM MgCl2). […] Geraldol, 2′,4′-dihydroxychalcone and 3,2′-dihyrdoxy-4,4′,6′-trimethoxychalcone were purchased from Indofine Chemical Company. All other compounds were purchased from Sigma-Aldrich. To tubes containing 13 µl of 1.5X buffer on ice the assay reagents were added as indicated for a final reaction volume of 20 µL: 25 ng of MAP2K4-AC (stocks of 25 ng/uL were prepared and aliquoted from a 10 ug vial after the supplier concentration was verified using a Nanodrop 1000), inhibitors as denoted (from DMSO stock solutions), 1 µM final ATP, and 1 µg of JNK1 or p38 MAPK. […] All kinase assays were performed twice at separate times.
(§1) Twenty µl of reaction mixtures were separated by sodium dodecyl sulfate-polyacrylamide gel electrophoresis using precast 4–20% gradient gels (Biorad), per the manufacturers' instructions, and transferred onto 0.45 µm nitrocellulose membranes (Biorad). […] Bands were visualized with the aid of chemiluminescence reagents (GE Healthcare) after hybridization with a HRP conjugated rabbit secondary antibody (GE Healthcare). […] The bands were quantified using ImageJ software; normalized inhibitor-response data were plotted using Prism 6 to determine relative IC50 values.
(In general: In western blotting, separated proteins are transferred to a membrane and probed.)

Test [2] addresses T1, MAP3K1 activated murine MAP2K4 (MAP2K4-AC). Briefly: In vitro MAP2K4 kinase assay, JNK1 (K55M) substrate, Western blot densitometry. Type of test: biochemical. On the procedure: In addition to activated MAP2K4, the in vitro kinase assay used either kinase dead JNK1-K55M (Abcam # ab95248) or kinase dead p38α MAPK-K53A (generously provided by Dr. Martin Watterson, Northwestern) as the substrate, ATP (Cell Signaling) and kinase assay buffer (25 mM Tris-HCl (pH 7.5), 5 mM beta-glycerophosphate, 2 mM dithiothreitol (DTT), 0.1 mM Na3VO4, 10 mM MgCl2). […] All other compounds were purchased from Sigma-Aldrich. To tubes containing 13 µl of 1.5X buffer on ice the assay reagents were added as indicated for a final reaction volume of 20 µL: 25 ng of MAP2K4-AC (stocks of 25 ng/uL were prepared and aliquoted from a 10 ug vial after the supplier concentration was verified using a Nanodrop 1000), inhibitors as denoted (from DMSO stock solutions), 1 µM final ATP, and 1 µg of JNK1 or p38 MAPK. […] All kinase assays were performed twice at separate times.
as §1

For test [3], the target named is T2, human MAP2K4-EE (Homo sapiens, UniProt P45985, S257E/T261E).
T2 construct: Human MAP2K4-EE (residues 37–399); His tag (pMCSG7 vector, TEV-cleavable) (N); made in house; host or cells: E. coli KRX cells with pGro7 (GroEL/GroES)
T2 sequence (P45985 37-399 S257E/T261E): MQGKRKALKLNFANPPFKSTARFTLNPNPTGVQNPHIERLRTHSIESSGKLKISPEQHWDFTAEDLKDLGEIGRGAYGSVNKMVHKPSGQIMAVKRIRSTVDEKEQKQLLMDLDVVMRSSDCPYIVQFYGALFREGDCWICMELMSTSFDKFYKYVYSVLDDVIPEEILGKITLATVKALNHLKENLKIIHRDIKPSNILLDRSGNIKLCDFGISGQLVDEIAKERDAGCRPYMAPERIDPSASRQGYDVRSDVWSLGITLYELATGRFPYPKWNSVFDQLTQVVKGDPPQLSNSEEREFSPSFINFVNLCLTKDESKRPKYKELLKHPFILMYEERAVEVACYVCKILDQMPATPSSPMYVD
Briefly: Fluorescence-based thermal shift (FTS) assay. Format: binding. Conditions: for ΔTm at 10 µM: 10 µM compound, mean ± SD. On the procedure:
Small molecule screening by FTS assay was performed as described previously, [23] but with modifications, using an Echo550 (Labcyte) for compound transfer and a Mosquito (TTP Labtech) to dispense protein into 384 well PCR plates. Purified MAP2K4-EE was appropriately diluted in a buffer containing 100 mM Hepes, pH 7.5, 150 mM NaCl. […] The PCR plates were sealed with optical seal, shaken, and centrifuged after protein and compounds were added. […] Curve fitting, melting temperature calculation and report generation on the raw FTS data were performed using software developed by us. Initial screening with the 2000 compound Spectrum Collection was carried out in a pooled fashion. Specifically, 3 compounds were added at 10 µM concentration to each well and wells with positive Tm shift >2°C were then dissected to identify the responsible compound.

For test [4], the target named is T2, human MAP2K4-EE. As to the kind of experiment: Fluorescence-based thermal shift (FTS) assay. Type of test: binding. To be noted: 1 mM ligand.
For the next test, the system named is human PCa cells. Set-up: method as in PMID 18339885. Conditions: orthotopically implanted into mice; cited from earlier work.
In the next test the test system is MMP-2 expression. Set-up: method as in PMID 19638505. To be noted: prospective administration to humans; cited from earlier work.
The mark [5] stands for this setting: kinase dead p38α MAPK-K53A substrate, 1 µM ATP, mean (95% confidence intervals), read-out: IC50-p38.
Where [6] appears, read: kinase dead JNK1-K55M substrate, 1 µM ATP, mean (95% confidence intervals), read-out: IC50-JNK1.

By IC50 is commonly meant the midpoint of a concentration-inhibition curve. In general, ΔTm refers to the change in melting temperature against a reference sample. Consider `O=c1c(O)c(-c2ccc(O)c(O)c2)oc2cc(O)cc(O)c12` [Quercetin], for which the figures for the IC50 in test [1] (setting [5]) and in test [2] (setting [6]) were 2 µM and 1.7 µM, respectively. The ΔTm at 10 µM at human MAP2K4-EE [3] (n = 3, read-out: ΔTm at 10 µM) was 2.75 ± 0.22 °C.

Turning to `COc1cc(-c2oc3cc(O)ccc3c(=O)c2O)ccc1O` [Geraldol, 3,4′,7-Trihydroxy-3′-methoxyflavone], the half-maximal inhibitory concentration (IC50) in test [1] was 0.8 µM.

Take `O=C(CCc1ccc(O)cc1)c1c(O)cc(O)cc1O` [Phloretin]: the “ΔTm at 10 µM” value on human MAP2K4-EE [3] (n = 3, 10 µM) was determined as 2.69±0.33 °C; at human MAP2K4-EE [3] (n = 3, read-out: ΔTm at 10 µM), 2.7 °C.

Take `O=c1cc(-c2ccc(O)cc2)oc2cc(O)cc(O)c12` [Apigenin]: the IC50 in test [1] (setting [5]) came to 15.9 µM; in test [2] (setting [6]) it was 20.1 µM. Also, at human MAP2K4-EE [3] (n = 3, read-out: ΔTm at 10 µM), the shift in melting temperature (ΔTm) at 10 µM was determined as 2.8 ± 0.23 °C.

On to `Nc1ncnc2c1ncn2[C@@H]1O[C@H](COP(=O)(O)OP(=O)(O)OP(=O)(O)O)[C@@H](O)[C@H]1O` [ATP], for which the “shift in Tm (ΔTm)” value at human MAP2K4-EE [4] is greater than 10 °C.

As to `O=c1c(O)c(-c2ccccc2)oc2cc(O)ccc12` [3,7-dihydroxyflavone], the IC50 in test [1] (setting [5]) stood at 0.8 µM. Further, the “ΔTm at 10 µM” value at human MAP2K4-EE [3] (n = 3, 10 µM) was determined as 2.55±0.20 °C; at human MAP2K4-EE [3] (n = 3, read-out: ΔTm at 10 µM) it was 2.5 °C.

As for `Cc1ccc(-c2nn(C(C)(C)C)c3ncnc(N)c23)cc1` [PP1], the results for the IC50 in test [1] and in test [2] were 13.8 µM and 16.9 µM, respectively. Also, the “ΔTm at 10 µM” value at human MAP2K4-EE [3] (n = 3, 10 µM) came out at 2.55±0.03 °C; at human MAP2K4-EE [3] (n = 3, read-out: ΔTm at 10 µM), 2.5 °C.

`O=c1c(-c2ccc(O)cc2)coc2cc(O)cc(O)c12` [genistein, 4,5,7-trihydroxyisoflavone]: the “metastasis of human PCa cells” value in the test with human PCa cells was “inhibits the metastasis”. For the same compound, in the test with MMP-2 expression, the “MMP-2 expression in prostate tissue” value is listed as “selectively decreases MMP-2 expression”.

For the compound `NCC(=O)O` [L-glycine], at human MAP2K4-EE [4], the “shift in Tm (ΔTm)” value was “did not induce thermal stability”.

Consider `CC(C)(C)n1nc(-c2ccc(Cl)cc2)c2c(N)ncnc21` [PP2], for which the IC50 was 39.9 µM in test [1] and 22.3 µM in test [2]. Moreover, the “ΔTm at 10 µM” value came out at 2.33±0.04 °C at human MAP2K4-EE [3] (n = 3, 10 µM) and 2.3 °C at human MAP2K4-EE [3] (n = 3, read-out: ΔTm at 10 µM).

On to `Nc1ncnc2c1ncn2[C@@H]1O[C@H](COP(=O)(O)OP(=O)(O)NP(=O)(O)O)[C@@H](O)[C@H]1O` [AMP-PNP], for which the “shift in Tm (ΔTm)” value at human MAP2K4-EE [4] was “highest ΔTm values”.

For the compound `COc1cc(/C=C(\C#N)C(N)=O)cc(CSc2nc3ccccc3s2)c1O` [AG825], the IC50 in test [1] (setting [5]) is 28.5 µM; in test [2] (setting [6]) it was 25 µM. In addition, the “ΔTm at 10 µM” value on human MAP2K4-EE [3] (n = 3, 10 µM) worked out at 2.26±0.15 °C; at human MAP2K4-EE [3] (n = 3, read-out: ΔTm at 10 µM), 2.3 °C.

Compound `O=C1c2ccccc2C(=O)c2c1ccc(O)c2O` [Alizarin, 1,2-dihydroxyanthraquinone] showed an IC50 in test [1] of 0.9 µM.

On to `O=C1c2ccccc2-c2n[nH]c3cccc1c23` [SP600125], for which the IC50 was 0.4 µM in test [1] (setting [5]) and 0.7 µM in test [2] (setting [6]). Moreover, the thermal shift (ΔTm) at 10 µM on human MAP2K4-EE [3] (n = 3, 10 µM) was 6.4±0.06 °C; at human MAP2K4-EE [3] (n = 3, read-out: ΔTm at 10 µM), greater than 4 °C.

For `O=c1cc(-c2ccccc2)oc2cc(O)cc(O)c12` [Chrysin, 5,7-dihydroxyflavone], the 50% inhibitory concentration (IC50) in test [1] (setting [5]) came out at 10.1 µM. Moreover, the shift in melting temperature (ΔTm) at 10 µM on human MAP2K4-EE [3] (n = 3, 10 µM) was determined as 1.78±0.42 °C; on human MAP2K4-EE [3] (n = 3, read-out: ΔTm at 10 µM) it was 1.8 °C.

As to `O=c1c(-c2ccc(O)cc2)coc2cc(O)ccc12` [Daidzein], the “inhibition of MAP2K4 activity” value in test [1] (concentrations of up to 200 µM, p38 MAPK (K53A) or JNK1 (K55M) substrates) is on record as “does not inhibit”. Besides, the “thermal stabilization of MAP2K4 (concentration dependent thermal shift)” value on human MAP2K4-EE [3] (1, 10 and 25 µM) is listed as “no such thermal stabilization effect”.

For `Nc1ncnc2c1c(I)cn2[C@@H]1O[C@H](CO)[C@@H](O)[C@H]1O` [5-iodotubercidin], the figures for the 50% inhibitory concentration (IC50) in test [1] (setting [5]) and in test [2] (setting [6]) were 0.2 µM and 2.8 µM, respectively. The thermal shift (ΔTm) at 10 µM on human MAP2K4-EE [3] (n = 3, 10 µM) turned out to be 4.29±0.07 °C; at human MAP2K4-EE [3] (n = 3, read-out: ΔTm at 10 µM) it was 4.3 °C.

For `O=C(/C=C/c1ccccc1)c1ccc(O)cc1O` [2′,4′-dihydroxychalcone], the half-inhibitory concentration (IC50) in test [1] (setting [5]) is 16.9 µM. For the same compound, the shift in melting temperature (ΔTm) at 10 µM at human MAP2K4-EE [3] (n = 3, 10 µM) was 3.67±0.50 °C; on human MAP2K4-EE [3] (n = 3, read-out: ΔTm at 10 µM), 3.7 °C.
